# Measurements from patent publication US20200017496A1 (priority 2017, published 2020).
# Like-named read-outs stand apart in the source and are kept apart here.
# Experiments:
# [1] = system: Proteus mirabilis (PMI) isolates; test: microbe, parasite or virus in culture; format: cell-based; conditions: for MIC: Proteus mirabilis, read-out: MIC
# Description: Method 2: MIC of Compounds Alone and Combined with Antibacterials Against Bacterial Isolates.
# Compounds of the present invention were assessed against genotyped bacterial strains (Table 3, 4) alone or in combination with an antibacterial (Table 2). […] Log phase bacterial suspensions were adjusted to a final density of 5·10^5 CFU/mL in cation-adjusted Mueller-Hinton broth (ca-MHB; Becton-Dickinson and Company) and added to each well (98 μL). Microplates were incubated for 16-20 h at 35° C. in ambient air. The MIC of the compounds was defined as the lowest concentration of said compounds that prevented bacterial growth as read by visual inspection. The MIC of ATB at each compound concentration was defined as the lowest concentration of ATB that prevented bacterial growth as read by visual inspection.
# [2] = in vivo; design: species or system Swiss Mouse; conditions: male, Swiss, mouse, in vivo, 10 mg/kg
# Description: Water and food were available ad libitum throughout the study. Mouse were handled in accordance with the institutional and national guidelines for the care and use of laboratory animals. […] Drugs were administered by oral gavage using feeding needle. […] Plasma samples were stored at -80° C. until bioanalysis. […] Plasma samples bioanalysis and data analysis The plasma samples (20 μl) were thawed at 0° C. […] Standard samples were prepared by spiking the blank plasma into concentrations 10-5 000 ng/ml and otherwise treated as the samples. […] Mass spectrometric detection involved electrospray ionization in the negative mode followed by multiple reaction monitoring of the drugs and internal standard transitions. Actual drug concentrations were deduced from interpolation of the standard curve. The pharmacokinetic parameters were calculated using XLfit (IDBS) and Excel (Microsoft) software, using standard non-compartmental methods. The intraduodenal bioavailability was calculated by dividing the AUC obtained from the intraduodenal administration by the AUC obtained from the intravenous administration.
smiles,measurement,setting,value
"C=CC1=C(C(=O)O)N2C(=O)[C@@H](NC(=O)/C(=N\OCC(=O)O)c3csc(N)n3)[C@H]2SC1 [FIX, Cefixime]",MIC ATB in combination,"[1]; PMI UFR82, AF1 @ 4 μg/mL",<=0.25 μg/mL
same,MIC ATB in combination,"[1]; PMI UFR82, AF1 @ 8 μg/mL",<=0.25 μg/mL
same,MIC ATB in combination,"[1]; PMI UFR120, AF1 @ 4 μg/mL",<=0.25 μg/mL
same,MIC ATB in combination,"[1]; PMI UFR120, AF1 @ 8 μg/mL",<=0.25 μg/mL
same,MIC ATB in combination,"[1]; PMI UFR121, AF1 @ 4 μg/mL",<=0.25 μg/mL
same,MIC ATB in combination,"[1]; PMI UFR121, AF1 @ 8 μg/mL",<=0.25 μg/mL
same,MIC ATB in combination,"[1]; PMI UFR122, AF1 @ 4 μg/mL",<=0.25 μg/mL
same,MIC ATB in combination,"[1]; PMI UFR122, AF1 @ 8 μg/mL",<=0.25 μg/mL
same,MIC ATB in combination,"[1]; PMI UFR123, AF1 @ 4 μg/mL",<=0.25 μg/mL
same,MIC ATB in combination,"[1]; PMI UFR123, AF1 @ 8 μg/mL",<=0.25 μg/mL
same,MIC ATB in combination,"[1]; PMI UFR124, AF1 @ 4 μg/mL",<=0.25 μg/mL
same,MIC ATB in combination,"[1]; PMI UFR124, AF1 @ 8 μg/mL",<=0.25 μg/mL
same,MIC ATB in combination,"[1]; PMI UFR125, AF1 @ 4 μg/mL",<=0.25 μg/mL
same,MIC ATB in combination,"[1]; PMI UFR125, AF1 @ 8 μg/mL",<=0.25 μg/mL
same,MIC ATB in combination,"[1]; PMI UFR126, AF1 @ 4 μg/mL",0.031 µg/mL
same,MIC ATB in combination,"[1]; PMI UFR126, AF1 @ 8 μg/mL",0.016 µg/mL
same,MIC ATB in combination,"[1]; PMI UFR127, AF1 @ 4 μg/mL",<=0.25 μg/mL
same,MIC ATB in combination,"[1]; PMI UFR127, AF1 @ 8 μg/mL",<=0.25 μg/mL
same,MIC ATB in combination,"[1]; PMI UFR129, AF1 @ 4 μg/mL",<=0.25 μg/mL
same,MIC ATB in combination,"[1]; PMI UFR129, AF1 @ 8 μg/mL",<=0.25 μg/mL
same,MIC ATB in combination,"[1]; PMI UFR130, AF1 @ 4 μg/mL",<=0.25 μg/mL
same,MIC ATB in combination,"[1]; PMI UFR130, AF1 @ 8 μg/mL",<=0.25 μg/mL
same,MIC ATB in combination,"[1]; PMI UFR237, AF1 @ 4 μg/mL",<=0.25 μg/mL
same,MIC ATB in combination,"[1]; PMI UFR237, AF1 @ 8 μg/mL",<=0.25 μg/mL
same,MIC,"[1]; PMI UFR126, alone",1020 µg/mL
same,MIC,"[1]; PMI UFR127, alone",> 128 µg/mL
same,MIC,"[1]; strain PMI UFR82 (CMY-2), ATB alone",8 µg/mL
same,MIC,"[1]; strain PMI UFR82 (CMY-2), CLA @ 4 μg/ml+ ATB",4 µg/mL
same,MIC,"[1]; strain PMI UFR120 (TEM-1, SHV-11, CTX-M-14), ATB alone",0.5 µg/mL
same,MIC,"[1]; strain PMI UFR120 (TEM-1, SHV-11, CTX-M-14), CLA @ 4 μg/ml+ ATB",≤ 0.25 µg/mL
same,MIC,"[1]; strain PMI UFR121 (TEM-1, TEM-52), ATB alone",128 µg/mL
same,MIC,"[1]; strain PMI UFR121 (TEM-1, TEM-52), CLA @ 4 μg/ml+ ATB",≤ 0.25 µg/mL
same,MIC,"[1]; strain PMI UFR122 (TEM-1, CTX-M-15), ATB alone",1 µg/mL
same,MIC,"[1]; strain PMI UFR122 (TEM-1, CTX-M-15), CLA @ 4 μg/ml+ ATB",≤ 0.25 µg/mL
same,MIC,"[1]; strain PMI UFR123 (CTX-M-1), ATB alone",128 µg/mL
same,MIC,"[1]; strain PMI UFR123 (CTX-M-1), CLA @ 4 μg/ml+ ATB",≤ 0.25 µg/mL
same,MIC,"[1]; strain PMI UFR124 (CTX-M-2), ATB alone",> 128 µg/mL
same,MIC,"[1]; strain PMI UFR124 (CTX-M-2), CLA @ 4 μg/ml+ ATB",≤ 0.25 µg/mL
same,MIC,"[1]; strain PMI UFR125 (CTX-M-71), ATB alone",0.5 µg/mL
same,MIC,"[1]; strain PMI UFR125 (CTX-M-71), CLA @ 4 μg/ml+ ATB",≤ 0.25 µg/mL
same,MIC,"[1]; strain PMI UFR126 (TEM-2, PER-1), ATB alone",1020 µg/mL
same,MIC,"[1]; strain PMI UFR126 (TEM-2, PER-1), CLA @ 4 μg/ml+ ATB",≤ 0.25 µg/mL
same,MIC,"[1]; strain PMI UFR127 (VEB-1), ATB alone",> 128 µg/mL
same,MIC,"[1]; strain PMI UFR127 (VEB-1), CLA @ 4 μg/ml+ ATB",≤ 0.25 µg/mL
same,MIC,"[1]; strain PMI UFR129 (TEM-1, VEB-6), ATB alone",> 128 µg/mL
same,MIC,"[1]; strain PMI UFR129 (TEM-1, VEB-6), CLA @ 4 μg/ml+ ATB",≤ 0.25 µg/mL
same,MIC,"[1]; strain PMI UFR130 (CMY-2), ATB alone",8 µg/mL
same,MIC,"[1]; strain PMI UFR130 (CMY-2), CLA @ 4 μg/ml+ ATB",8 µg/mL
same,MIC,"[1]; strain PMI UFR237 (VEB-6), ATB alone",> 128 µg/mL
same,MIC,"[1]; strain PMI UFR237 (VEB-6), CLA @ 4 μg/ml+ ATB",≤ 0.25 µg/mL
same,AUC(0-inf),[2]; iv,37200 ng·h/mL
same,bioavailability,[2]; po,45%
